Among the data in patent US9023882B2, “5-membered nitrogen containing heterocyclic derivatives and pharmaceutical compositions comprising the same” (Kissei Pharmaceutical Co., Ltd., priority 2007, dated 2015) are IC50 values, retold here.

Chain of Xanthine oxidase (from bovine milk, Sigma) (P80457 whole entry): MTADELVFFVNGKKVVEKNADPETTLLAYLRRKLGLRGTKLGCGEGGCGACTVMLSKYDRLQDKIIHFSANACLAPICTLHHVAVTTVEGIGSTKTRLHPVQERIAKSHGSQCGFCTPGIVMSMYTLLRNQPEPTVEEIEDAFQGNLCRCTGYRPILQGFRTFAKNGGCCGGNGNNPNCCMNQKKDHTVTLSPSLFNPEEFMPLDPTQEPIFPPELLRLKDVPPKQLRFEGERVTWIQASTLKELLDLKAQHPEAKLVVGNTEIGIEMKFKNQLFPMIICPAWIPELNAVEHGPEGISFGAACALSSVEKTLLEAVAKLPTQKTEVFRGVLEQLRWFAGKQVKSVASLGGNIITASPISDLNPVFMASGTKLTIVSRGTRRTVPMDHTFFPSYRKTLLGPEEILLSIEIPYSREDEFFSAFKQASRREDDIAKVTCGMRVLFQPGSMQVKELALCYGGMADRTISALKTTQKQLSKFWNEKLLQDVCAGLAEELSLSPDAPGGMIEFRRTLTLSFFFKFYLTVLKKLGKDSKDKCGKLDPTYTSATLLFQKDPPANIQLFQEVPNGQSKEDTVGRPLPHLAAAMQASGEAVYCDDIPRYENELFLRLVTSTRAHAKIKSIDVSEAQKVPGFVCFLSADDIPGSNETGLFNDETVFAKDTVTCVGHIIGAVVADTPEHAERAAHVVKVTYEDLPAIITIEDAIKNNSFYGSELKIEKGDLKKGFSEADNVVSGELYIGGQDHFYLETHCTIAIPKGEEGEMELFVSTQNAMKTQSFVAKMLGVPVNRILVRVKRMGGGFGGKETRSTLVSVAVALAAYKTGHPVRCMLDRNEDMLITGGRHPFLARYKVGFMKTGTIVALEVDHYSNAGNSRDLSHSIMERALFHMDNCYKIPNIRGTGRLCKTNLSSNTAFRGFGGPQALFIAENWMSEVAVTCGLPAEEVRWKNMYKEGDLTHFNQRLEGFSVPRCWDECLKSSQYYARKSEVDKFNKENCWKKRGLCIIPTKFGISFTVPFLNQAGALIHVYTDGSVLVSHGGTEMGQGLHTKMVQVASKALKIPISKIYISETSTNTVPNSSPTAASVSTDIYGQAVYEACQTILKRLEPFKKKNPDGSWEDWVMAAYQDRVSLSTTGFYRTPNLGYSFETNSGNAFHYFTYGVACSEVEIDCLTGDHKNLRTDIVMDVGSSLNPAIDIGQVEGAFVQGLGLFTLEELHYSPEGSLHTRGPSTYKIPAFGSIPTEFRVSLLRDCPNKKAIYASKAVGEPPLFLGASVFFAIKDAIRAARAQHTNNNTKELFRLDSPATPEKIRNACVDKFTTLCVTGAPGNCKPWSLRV

The first experiment concerns the target Xanthine oxidase (from bovine milk, Sigma) (Bos taurus (Bovine), UniProt P80457). Briefly: Xanthine oxidase inhibitory activity. The experiment is classed as biochemical. The following applies: 100 μM xanthine final, absorbance at 290 nm. As for the experimental part: (1) Preparation of Test Compounds
Test compounds were dissolved in DMSO (Wako) at 40 mM concentration and then diluted to intended concentrations with phosphate-buffered saline (PBS).
(2) Method for Measurement
Xanthine oxidase (from bovine milk, Sigma) was prepared with phosphate-buffered saline (PBS) at 0.02 units/mL, and then the solution was added to 96 well plates at 50 μL/well. In addition, test compounds diluted with PBS were added at 50 μL/well. Xanthine (Wako) at 200 μM prepared with PBS was added at 100 μL/well, and the reaction was conducted for 10 minutes at room temperature. Absorbance at 290 nm was measured using a microplate reader SpectraMax Plus 384 (Molecular device). The absorbance under a condition without xanthine is 0%, and control without test compounds is 100%. Fifty % inhibitory concentration of a test compound (IC50) was calculated (Tables 91 to 92). Ex. No in the table indicates Example number.
`N#Cc1cn(-c2ccc(C(=O)O)c(O)c2)cc1-c1cccc(OCc2ccccc2)c1` [Example 333] had an IC50 of 87.8 nM.

In turn, `O=C(O)c1ccc(-n2cc(C(=O)O)c(C(F)(F)F)c2)cc1O` [Example 297] had a 50% inhibitory concentration (IC50) of 18.9 nM.

Turning to `N#Cc1cn(-c2ccc(C(=O)O)c(O)c2)cc1C(=O)O` [Example 299], half-maximal inhibition (IC50) required 7.9 nM.

In turn, `Cc1ccccc1-c1cn(-c2ccc(C(=O)O)c(O)c2)cc1C#N` [Example 307] registered an IC50 of 7.5 nM.

As to `N#Cc1cn(-c2ccc(C(=O)O)c(O)c2)cc1-c1ccccc1F` [Example 319], the IC50 turned out to be 8.1 nM.

Compound `N#Cc1cn(-c2ccc(C(=O)O)c(O)c2)cc1-c1ccc(C(F)(F)F)cc1` [Example 318] yielded an IC50 of 17 nM.

`COc1ccc2ccccc2c1-c1cn(-c2ccc(C(=O)O)c(O)c2)cc1C#N` [Example 286]: the IC50 came out at 27.5 nM.

Compound `N#Cc1cn(-c2ccc(C(=O)O)c(O)c2)cc1-c1nccs1` [Example 348] displayed a half-inhibitory concentration (IC50) of 5.2 nM.

Regarding `CCOc1ccccc1-c1cn(-c2ccc(C(=O)O)c(O)c2)cc1C#N` [Example 335], the half-inhibitory concentration (IC50) was found to be 7.9 nM.

Consider `CSc1ccc(-c2cn(-c3ccc(C(=O)O)c(O)c3)cc2C#N)cc1` [Example 350], for which the IC50 was determined as 13.7 nM.

In the case of `N#Cc1cn(-c2ccc(C(=O)O)c(O)c2)cc1-c1ccc(COc2ccccc2)cc1` [Example 334], the 50% inhibitory concentration (IC50) came out at 59.5 nM.

In turn, `COc1ccccc1-c1cn(-c2ccc(C(=O)O)c(O)c2)cc1C#N` [Example 309] showed an IC50 of 6.5 nM.

For the compound `COCCOc1cccc(-c2cn(-c3ccc(C(=O)O)c(O)c3)cc2C#N)c1` [Example 345], half-maximal inhibition (IC50) required 25.7 nM.

In turn, `Cc1ccsc1-c1cn(-c2ccc(C(=O)O)c(O)c2)cc1C#N` [Example 311] gave a 50% inhibitory concentration (IC50) of 6.9 nM.

With `N#Cc1ccn(-c2ccc(C(=O)O)c(O)c2)c1` [Example 358], half-maximal inhibition (IC50) was put at 8.8 nM.

`COc1ccc(-c2cn(-c3ccc(C(=O)O)c(O)c3)cc2C#N)c(C)c1` [Example 276] had an IC50 of 7.7 nM.

On to `COc1ccccc1/C=C/c1cn(-c2ccc(C(=O)O)c(O)c2)cc1C#N` [Example 293], for which the IC50 stood at 15.9 nM.

The compound `CCCOc1ccc(-c2cn(-c3ccc(C(=O)O)c(O)c3)cc2C#N)cc1` [Example 342] came in with a 50% inhibitory concentration (IC50) of 35.9 nM.

In turn, `N#Cc1cn(-c2cc(C(=O)O)ccn2)cc1-c1ccc(Cl)cc1` [Example 365] showed an IC50 of 33.1 nM.

In turn, `Cc1cccc(-c2cn(-c3ccc(C(=O)O)c(O)c3)cc2C#N)c1` [Example 280] showed a concentration for half-maximal inhibition (IC50) of 15.6 nM.

`N#Cc1cn(-c2ccc(C(=O)O)c(O)c2)cc1-c1cccc(Cl)c1` [Example 278] yielded an IC50 of 49.1 nM.

`N#Cc1cn(-c2cc(C(=O)O)ccn2)cc1-c1ccc2c(c1)OCCO2` [Example 369]: the IC50 turned out to be 9.7 nM.

Compound `N#Cc1cn(-c2ccc(C(=O)O)c(O)c2)cc1-c1ccccc1Cl` [Example 308] had an IC50 of 7.5 nM.

The compound `N#Cc1cn(-c2ccc(C(=O)O)c(O)c2)cc1-c1cc(F)ccc1F` [Example 277] displayed a half-inhibitory concentration (IC50) of 10.1 nM.

Compound `N#Cc1cn(-c2cc(C(=O)O)ccn2)cc1C1=CCCCC1` [Example 370] returned an IC50 of 19.9 nM.

`N#Cc1cn(-c2ccc(C(=O)O)c(O)c2)cc1-c1cc2ccccc2o1` [Example 290]: inhibition was half-maximal at 27.6 nM (IC50).

In turn, `Cc1cn(-c2ccc(C(=O)O)c(O)c2)cc1C#N` [Example 359] had a half-inhibitory concentration (IC50) of 6.1 nM.

`COc1cccc(-c2cn(-c3ccc(C(=O)O)c(O)c3)cc2C#N)c1` [Example 279] yielded an IC50 of 8.4 nM.

With `N#Cc1cn(-c2ccc(C(=O)O)c(O)c2)cc1C(F)(F)F` [Example 300], half-maximal inhibition (IC50) required 7.9 nM.

`Cn1cc(-c2cn(-c3ccc(C(=O)O)c(O)c3)cc2C#N)c2ccccc21` [Example 292] displayed an IC50 of 5.2 nM.

The same experiment, now with this note: 0.02 units/mL, xanthine 200 μM, 10 minutes at room temperature, absorbance at 290 nm.
The compound `CC(=O)Nc1nn(-c2ccc(C(=O)O)cc2)cc1C#N` [Example 27, 4-(3-Acetylamino-4-cyanopyrazole-1-yl)benzoic acid] gave an IC50 of 7.1 nM.

In the case of `CCCCCCc1cn(-c2ccc(C(=O)O)cc2)cc1C#N` [Example 246], the half-maximal inhibitory concentration (IC50) came out at 8.9 nM.

In the case of `N#Cc1cn(-c2ccc(C(=O)O)c(O)c2)cc1-c1cccc(F)c1F` [Example 270], half-maximal inhibition (IC50) required 24.2 nM.

With `N#Cc1cn(-c2ccc(C(=O)O)cc2)cc1-c1cccc(OCc2cccs2)c1` [Example 173], it took 41.4 nM to reach half-maximal inhibition (IC50).

`CC(C)n1cc(-c2cn(-c3ccc(C(=O)O)cc3)cc2C#N)c2ccccc21` [Example 252] had an IC50 of 33.2 nM.

Turning to `Cc1cn(-c2ccc(C(=O)O)cc2)cc1C#N` [Example 236], half-maximal inhibition (IC50) required 81.2 nM.

`N#Cc1cn(-c2ccc(C(=O)O)cc2)cc1-c1cccc2ccccc12` [Example 209]: the IC50 worked out at 7.1 nM.

In the case of `CN(Cc1ccccc1)C(=O)c1cn(-c2ccc(C(=O)O)cc2)cc1C#N` [Example 228], the IC50 came to 4.6 nM.

In turn, `CN(C)C(=O)c1cn(-c2ccc(C(=O)O)cc2)cc1C#N` [Example 226] had an IC50 of 19.7 nM.

Compound `N#Cc1cn(-c2ccc(C(=O)O)cc2)cc1C(=O)NCc1ccccc1` [Example 227] registered an IC50 of 3.6 nM.

Regarding `N#Cc1cn(-c2ccc(C(=O)O)cc2)cc1-c1ccc(OCC(=O)O)cc1` [Example 160], the IC50 is 2.1 nM.

With `CCCCCCCc1cn(-c2ccc(C(=O)O)cc2)cc1C#N` [Example 247], half-maximal inhibition (IC50) required 8.9 nM.

As for `N#Cc1cn(-c2ccc(C(=O)O)cc2)cc1-c1ccc(-c2ccccc2)cc1` [Example 163], half-maximal inhibition (IC50) was put at 41.7 nM.

`Cc1ccc(COc2cccc(-c3cn(-c4ccc(C(=O)O)cc4)cc3C#N)c2)cc1` [Example 188] yielded a half-inhibitory concentration (IC50) of 132 nM.

Take `COc1cccc(COc2ccccc2-c2cn(-c3ccc(C(=O)O)cc3)cc2C#N)c1` [Example 184]: half-maximal inhibition (IC50) was put at 71.9 nM.

`N#Cc1cn(-c2ccc(C(=O)O)cc2)cc1-c1cccc(CO)c1` [Example 219] gave a 50% inhibitory concentration (IC50) of 5 nM.

In turn, `N#Cc1cn(-c2ccc(C(=O)O)cc2)cc1-c1ccc2ccccc2c1` [Example 250] registered an IC50 of 25.6 nM.

`N#Cc1cn(-c2ccc(C(=O)O)cc2)cc1-c1cccc(OCCOc2ccccc2)c1` [Example 216]: it took 20.9 nM to reach half-maximal inhibition (IC50).

Consider `N#Cc1cn(-c2ccc(C(=O)O)cc2)nc1-c1csc2ccccc12` [Example 8, 4-(3-Benzo[b]thiophene-3-yl-4-cyanopyrazole-1-yl)benzoic acid], for which half-maximal inhibition (IC50) was put at 7.5 nM.

As to `N#Cc1cn(-c2ccc(C(=O)O)c(O)c2)cc1-c1c(F)cccc1F` [Example 274], inhibition was half-maximal at 5 nM (IC50).

`CCCCc1cn(-c2ccc(C(=O)O)cc2)cc1C#N` [Example 240]: the IC50 was 3.3 nM.

Consider `CN(C)/C=N/c1nn(-c2ccc(C(=O)O)cc2)cc1C#N` [Example 261], for which the IC50 was 5.3 nM.

`N#Cc1cn(-c2ccc(C(=O)O)cc2)cc1-c1ccccc1OCc1cccs1` [Example 175] gave an IC50 of 27.7 nM.

`N#Cc1cn(-c2ccc(C(=O)O)cc2)cc1-c1cccc(OCC(=O)O)c1` [Example 159] showed a 50% inhibitory concentration (IC50) of 2.7 nM.

The compound `COCCOc1cn(-c2ccc(C(=O)O)cc2)cc1C#N` [Example 234] displayed an IC50 of 4 nM.

For the compound `N#Cc1cn(-c2ccc(C(=O)O)cc2)cc1-c1cccc(OCc2cccc(Cl)c2)c1` [Example 193], the 50% inhibitory concentration (IC50) came to 70.4 nM.

`N#Cc1cn(-c2ccc(C(=O)O)cc2)nc1NC(=O)Cc1ccccc1` [Example 263] returned a concentration for half-maximal inhibition (IC50) of 4.6 nM.

`N#Cc1cccc(-c2cn(-c3ccc(C(=O)O)cc3)cc2C#N)c1` [Example 211]: the IC50 is 4.6 nM.

The compound `N#Cc1cn(-c2ccc(C(=O)O)c(O)c2)cc1-c1cc(F)cc(F)c1` [Example 271] came in with an IC50 of 15.1 nM.

In the case of `N#Cc1cn(-c2ccc(C(=O)O)cc2)nc1NC(=O)c1ccccc1` [Example 262], the IC50 worked out at 3.1 nM.

`COCCNC(=O)c1cn(-c2ccc(C(=O)O)cc2)cc1C#N` [Example 229] returned an IC50 of 7.2 nM.

Compound `N#Cc1cn(-c2ccc(C(=O)O)cc2)cc1-c1ccccc1OCc1cccc(F)c1` [Example 171] showed a 50% inhibitory concentration (IC50) of 39.8 nM.

As for `N#Cc1cn(-c2ccc(C(=O)O)cc2)cc1-c1ccccc1OCCCCO` [Example 199], the half-inhibitory concentration (IC50) was 19.2 nM.

As for `N#Cc1cn(-c2ccc(C(=O)O)cc2)cc1-c1ccccc1OCc1ccccc1F` [Example 170], the concentration for half-maximal inhibition (IC50) amounted to 37.5 nM.

Turning to `CC(C)Cc1cn(-c2ccc(C(=O)O)cc2)cc1C#N` [Example 241], 3.6 nM corresponded to half-maximal inhibition (IC50).

With `COCCN(C)C(=O)c1cn(-c2ccc(C(=O)O)cc2)cc1C#N` [Example 230], the IC50 turned out to be 13 nM.

Turning to `CCOCCOc1ccccc1-c1cn(-c2ccc(C(=O)O)cc2)cc1C#N` [Example 213], the concentration for half-maximal inhibition (IC50) amounted to 16.8 nM.

For the compound `N#Cc1cn(-c2ccc(C(=O)O)cc2)cc1-c1cccn1Cc1ccccc1` [Example 256], the half-maximal inhibitory concentration (IC50) was found to be 15.2 nM.

For the compound `N#Cc1cn(-c2ccc(C(=O)O)cc2)cc1-c1ccc(C(=O)O)cc1` [Example 210], the 50% inhibitory concentration (IC50) was found to be 5.1 nM.

Compound `CCOCCOc1cccc(-c2cn(-c3ccc(C(=O)O)cc3)cc2C#N)c1` [Example 215] registered an IC50 of 6.7 nM.

Compound `N#Cc1cn(-c2ccc(C(=O)O)cc2)cc1-c1cccc(OCc2ccsc2)c1` [Example 174] gave an IC50 of 17.6 nM.

`N#Cc1cn(-c2ccc(C(=O)O)cc2)cc1CCc1ccco1` [Example 258]: half-maximal inhibition (IC50) was put at 3.9 nM.

`N#Cc1cn(-c2ccc(C(=O)O)cc2)cc1-c1ccccc1Oc1ccccc1` [Example 164] gave an IC50 of 33.2 nM.

In turn, `N#Cc1cn(-c2ccc(C(=O)O)cc2)cc1-c1csc2ccccc12` [Example 253] gave an IC50 of 5.4 nM.

As for `CCCc1cn(-c2ccc(C(=O)O)cc2)cc1C#N` [Example 238], the 50% inhibitory concentration (IC50) worked out at 3.6 nM.
